Source: patent US9695155B2, “Herbicidal substituted pyrimidinyloxy benzene compounds” (E. I. DU PONT DE NEMOURS AND COMPANY, priority 2013, dated 2017)

What was measured:
field violet [1] = assay: Test D preemergence; format: in vivo, Viola arvensis; conditions: Viola arvensis, pre-emergence, scale 0-100, read-out: Plant response rating, Field Violet
In short: (§1)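 After treatment, visual injury versus untreated plants, 0–100 scale, assessed at 7 to 21 days. Applications were made preemergence to silt loam-sown seed and postemergence to seedlings 2–18 cm high in potting medium.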

deadnettle = assay: Test D preemergence; format: in vivo, Lamium amplexicaule; conditions: Lamium amplexicaule, pre-emergence, scale 0-100, read-out: Plant response rating, Deadnettle
In short: as §1

wild radish = assay: Test D preemergence; format: in vivo, Raphanus raphanistrum; conditions: Raphanus raphanistrum, pre-emergence
In short: as §1

bromegrass, downy = assay: Test D preemergence; format: in vivo, Bromus tectorum; conditions: Bromus tectorum, pre-emergence, scale 0-100, read-out: Plant response rating, Bromegrass, Downy
In short: as §1

corn = assay: Test E postemergence; format: in vivo, Zea mays; conditions: Zea mays, post-emergence
In short: (§2)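 Test chemicals formulated in a non-phytotoxic solvent mixture containing a surfactant were applied preemergence to seeds in silt loam soil or postemergence to plants at the 1- to 4-leaf stage in potting mix. After 14 to 21 days in a greenhouse, injury was visually rated against controls on a 0-100 scale (0 = no effect, 100 = complete control).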

bluegrass [2] = assay: Test D preemergence; format: in vivo, Poa annua; conditions: Poa annua, pre-emergence, scale 0-100, read-out: Plant response rating, Bluegrass
In short: as §1

soybean = assay: Test E postemergence; format: in vivo, Glycine max; conditions: Glycine max, post-emergence
In short: as §2

wild mustard = assay: Test D postemergence; format: in vivo, Sinapis arvensis; conditions: Brassica, post-emergence, scale 0 to 100 (0 no effect, 100 complete control), read-out: Plant response rating, Mustard, Wild
In short: as §1

kochia = assay: Test D postemergence; format: in vivo, Kochia scoparia; conditions: Bassia scoparia, post-emergence, scale 0 to 100 (0 no effect, 100 complete control), read-out: Plant response rating, Kochia
In short: as §1

bluegrass [3] = assay: Test D postemergence; format: in vivo, Poa annua; conditions: Poa annua, post-emergence, Postemergence, scale 0 to 100 (0 no effect, 100 complete control), read-out: Plant response rating, Bluegrass
In short: as §1

field violet [4] = assay: Test D postemergence; format: in vivo, Viola arvensis; conditions: Viola arvensis, post-emergence, scale 0 to 100 (0 no effect, 100 complete control), read-out: Plant response rating, Field Violet
In short: as §1

windgrass = assay: Test D postemergence; format: in vivo, Apera spica-venti; conditions: Apera spica-venti, post-emergence, scale 0 to 100 (0 no effect, 100 complete control), read-out: Plant response rating, Windgrass
In short: as §1

green foxtail = assay: Test D postemergence; format: in vivo, Setaria viridis; conditions: Setaria viridis, post-emergence, scale 0 to 100 (0 no effect, 100 complete control), read-out: Plant response rating, Foxtail, Green
In short: as §1

[5] = Postemergence, 31 g ai/ha, scale 0 to 100
[6] = Postemergence, 62 g ai/ha, scale 0 to 100
[7] = Postemergence, 125 g ai/ha, scale 0 to 100
[8] = Postemergence, 250 g ai/ha, scale 0 to 100
[9] = postemergence, 16 g ai/ha, scale 0 to 100, 0 no effect, 100 complete control

Q: `N#Cc1cccc(Oc2ncc(Cl)cn2)c1-n1cc(C(F)(F)F)cn1` [Compound 58, 3-[(5-chloro-2-pyrimidinyl)oxy]-2-[4-(trifluoromethyl)-1H-pyrazol-1-yl]benzonitrile] was tested. Which pest or weed control at 31 g/ha (field violet [1]; 31 g ai/ha) did it give?
A: 100%

Q: What about the pest or weed control at 62 g/ha (field violet [1]; 62 g ai/ha) of the same molecule?
A: 100%

Q: And the pest or weed control at 125 g/ha (field violet [1]; 125 g ai/ha)?
A: 100%

Q: And the pest or weed control at 250 g/ha (field violet [1]; 250 g ai/ha)?
A: 100%

Q: And the pest or weed control at 31 g/ha (deadnettle; 31 g ai/ha)?
A: 100%

Q: What about the pest or weed control at 62 g/ha (deadnettle; 62 g ai/ha) of the same molecule?
A: 100%

Q: And the pest or weed control at 125 g/ha (deadnettle; 125 g ai/ha)?
A: 100%

Q: And the pest or weed control at 250 g/ha (deadnettle; 250 g ai/ha)?
A: 100%

Q: What about the pest or weed control at 31 g/ha (wild radish; 31 g ai/ha, scale 0 (no effect) to 100 (complete control), read-out: Plant response rating, Radish, Wild) of the same molecule?
A: 100%

Q: And the pest or weed control at 62 g/ha (wild radish; 62 g ai/ha, scale 0-100, read-out: Plant response rating, Radish, Wild)?
A: 100%

Q: And the pest or weed control at 125 g/ha (wild radish; 125 g ai/ha, scale 0-100, read-out: Plant response rating, Radish, Wild)?
A: 100%

Q: And the pest or weed control at 250 g/ha (wild radish; 250 g ai/ha, scale 0-100, read-out: Plant response rating, Radish, Wild)?
A: 100%

Q: What about the pest or weed control at 31 g/ha (bromegrass, downy; 31 g ai/ha) of the same molecule?
A: 10%

Q: What about the pest or weed control at 62 g/ha (bromegrass, downy; 62 g ai/ha) of the same molecule?
A: 15%

Q: And the pest or weed control at 125 g/ha (bromegrass, downy; 125 g ai/ha)?
A: 35%

Q: What about the pest or weed control at 250 g/ha (bromegrass, downy; 250 g ai/ha) of the same molecule?
A: 75%

Q: And the corn plant response (injury) rating, 0-100 at 31 g/ha (corn; [5])?
A: 10%

Q: What about the corn plant response (injury) rating, 0-100 at 62 g/ha (corn; [6]) of the same molecule?
A: 10%

Q: What about the corn plant response (injury) rating, 0-100 at 125 g/ha (corn; [7]) of the same molecule?
A: 10%

Q: And the corn plant response (injury) rating, 0-100 at 250 g/ha (corn; [8])?
A: 15%

Q: And the corn plant response (injury) rating, 0-100 at 16 g/ha (corn; [9])?
A: 5%

Q: What about the pest or weed control at 31 g/ha (bluegrass [2]; 31 g ai/ha) of the same molecule?
A: 10%

Q: And the pest or weed control at 62 g/ha (bluegrass [2]; 62 g ai/ha)?
A: 50%

Q: What about the pest or weed control at 125 g/ha (bluegrass [2]; 125 g ai/ha) of the same molecule?
A: 100%

Q: What about the pest or weed control at 250 g/ha (bluegrass [2]; 250 g ai/ha) of the same molecule?
A: 100%

Q: And the plant response (crop injury) rating, soybean, 0-100 scale at 31 g/ha (soybean; [5])?
A: 95%

Q: And the plant response (crop injury) rating, soybean, 0-100 scale at 62 g/ha (soybean; [6])?
A: 95%

Q: What about the plant response (crop injury) rating, soybean, 0-100 scale at 125 g/ha (soybean; [7]) of the same molecule?
A: 95%

Q: And the plant response (crop injury) rating, soybean, 0-100 scale at 250 g/ha (soybean; [8])?
A: 100%

Q: And the plant response (crop injury) rating, soybean, 0-100 scale at 16 g/ha (soybean; [9])?
A: 75%

Q: And the pest or weed control at 31 g/ha (wild mustard; 31 g ai/ha)?
A: 85%

Q: And the pest or weed control at 62 g/ha (wild mustard; 62 g ai/ha)?
A: 100%

Q: And the pest or weed control at 125 g/ha (wild mustard; 125 g ai/ha)?
A: 100%

Q: What about the pest or weed control at 250 g/ha (wild mustard; 250 g ai/ha) of the same molecule?
A: 100%

Q: What about the pest or weed control at 31 g/ha (kochia; 31 g ai/ha) of the same molecule?
A: 95%

Q: And the pest or weed control at 62 g/ha (kochia; 62 g ai/ha)?
A: 95%

Q: And the pest or weed control at 125 g/ha (kochia; 125 g ai/ha)?
A: 95%

Q: What about the pest or weed control at 250 g/ha (kochia; 250 g ai/ha) of the same molecule?
A: 95%

Q: And the pest or weed control at 31 g/ha (bluegrass [3]; 31 g ai/ha)?
A: 25%

Q: And the pest or weed control at 62 g/ha (bluegrass [3]; 62 g ai/ha)?
A: 35%

Q: What about the pest or weed control at 125 g/ha (bluegrass [3]; 125 g ai/ha) of the same molecule?
A: 45%

Q: What about the pest or weed control at 250 g/ha (bluegrass [3]; 250 g ai/ha) of the same molecule?
A: 55%

Q: What about the pest or weed control at 31 g/ha (field violet [4]; 31 g ai/ha) of the same molecule?
A: 100%

Q: What about the pest or weed control at 62 g/ha (field violet [4]; 62 g ai/ha) of the same molecule?
A: 100%

Q: And the pest or weed control at 125 g/ha (field violet [4]; 125 g ai/ha)?
A: 100%

Q: And the pest or weed control at 250 g/ha (field violet [4]; 250 g ai/ha)?
A: 100%

Q: What about the pest or weed control at 31 g/ha (windgrass; 31 g ai/ha) of the same molecule?
A: 20%

Q: What about the pest or weed control at 62 g/ha (windgrass; 62 g ai/ha) of the same molecule?
A: 35%

Q: And the pest or weed control at 125 g/ha (windgrass; 125 g ai/ha)?
A: 55%

Q: And the pest or weed control at 250 g/ha (windgrass; 250 g ai/ha)?
A: 90%

Q: What about the pest or weed control at 31 g/ha (green foxtail; 31 g ai/ha) of the same molecule?
A: 20%

Q: What about the pest or weed control at 62 g/ha (green foxtail; 62 g ai/ha) of the same molecule?
A: 40%

Q: And the pest or weed control at 125 g/ha (green foxtail; 125 g ai/ha)?
A: 65%

Q: What about the pest or weed control at 250 g/ha (green foxtail; 250 g ai/ha) of the same molecule?
A: 80%
